Measurements taken from US20260041653A1, “AN HDAC INHIBITOR FOR TREATING CANCER WITH A MODIFIED STK11 ACTIVITY OR EXPRESSION” (Tango Therapeutics, Inc., priority 2022, published 2026).
Like-named read-outs stand apart in the source and are kept apart here.

Experiments:
hERG potassium channel = target: T1, hERG potassium channel (Homo sapiens, UniProt Q12809); assay: hERG manual patch-clamp in HEK 293 cells; assay type: cell-based
T1 construct: expressed in transfected cells
Experimental: (§1) The effects of Compound I on a cloned human ether-à-go-go-related gene (hERG) potassium channels stably expressed in human embryonic kidney (HEK) 293 cells were measured using manual patch-clamp technique. Briefly, Compound I was soluble at 100 uM in 0.3% DMSO, pH 6.9. A does range-finding (DRF) assay was performed with Compound I at 3. 30, and 100 uM concentrations.

CYP2B6 = CYP2B6 (Homo sapiens, UniProt P20813); assay: Metabolism by recombinant human CYP2B6; assay type: in vitro ADME; details: read-out: terminal half life (T1/2), rh CYP2B6
Experimental: (§2) Drug metabolizing enzymes involved in the biotransformation of Compound I were investigated using human liver microsomes (HLM) and recombinant enzymes. Compound I was stable in HLMs (>93% remaining after 240 minutes of incubation with HLM protein concentration at 0.6 mg/ml). CYP selective inhibitor experiments were not performed due to lack of appreciable Compound I turnover.

[1] = Solubility in hERG assay medium; assay type: physicochemical; details: aqueous buffer, kinetic from dmso stock, 0.3% DMSO, pH 6.9
Experimental: as §1

H3K9Ac = H3K9Ac in MC38 tumor tissue by Western blot; assay type: in vivo, mouse; details: 3, 10, 30 mg/kg for 7 days; tissue 8 hours post last dose; normalized to total histone H3
Experimental: Formation and accumulation of acetylated histone 3 lysine 9 (H3K9Ac) in MC38 tumor tissue from mouse after treatment with Compound I was determined by Western blot. Briefly, female C57BL/6 mice with MC38 tumors were treated with Compound I for 7 days at the indicated dose (3 mg/kg, 10 mg/kg, and 30 mg/kg). Tissue was collected 8 hours post last dose and the H3K9Ac accumulation was quantified by Western blot in (FIG. 14A) and normalized to total histone H3 (FIG. 14B).

CYP2C19 = CYP2C19 (Homo sapiens, UniProt P33261); assay: Metabolism by recombinant human CYP2C19; assay type: in vitro ADME; details: read-out: terminal half life (T1/2), rh CYP2C19
Experimental: as §2

CYP1A2 = CYP1A2 (Homo sapiens, UniProt P05177); assay: Metabolism by recombinant human CYP1A2; assay type: in vitro ADME; details: read-out: terminal half life (T1/2), rh CYP1A2
Experimental: as §2

CYP2D6 = CYP2D6 (Homo sapiens, UniProt P10635); assay: Metabolism by recombinant human CYP2D6; assay type: in vitro ADME; details: read-out: terminal half life (T1/2), rh CYP2D6
Experimental: as §2

T1 sequence (Q12809 whole entry): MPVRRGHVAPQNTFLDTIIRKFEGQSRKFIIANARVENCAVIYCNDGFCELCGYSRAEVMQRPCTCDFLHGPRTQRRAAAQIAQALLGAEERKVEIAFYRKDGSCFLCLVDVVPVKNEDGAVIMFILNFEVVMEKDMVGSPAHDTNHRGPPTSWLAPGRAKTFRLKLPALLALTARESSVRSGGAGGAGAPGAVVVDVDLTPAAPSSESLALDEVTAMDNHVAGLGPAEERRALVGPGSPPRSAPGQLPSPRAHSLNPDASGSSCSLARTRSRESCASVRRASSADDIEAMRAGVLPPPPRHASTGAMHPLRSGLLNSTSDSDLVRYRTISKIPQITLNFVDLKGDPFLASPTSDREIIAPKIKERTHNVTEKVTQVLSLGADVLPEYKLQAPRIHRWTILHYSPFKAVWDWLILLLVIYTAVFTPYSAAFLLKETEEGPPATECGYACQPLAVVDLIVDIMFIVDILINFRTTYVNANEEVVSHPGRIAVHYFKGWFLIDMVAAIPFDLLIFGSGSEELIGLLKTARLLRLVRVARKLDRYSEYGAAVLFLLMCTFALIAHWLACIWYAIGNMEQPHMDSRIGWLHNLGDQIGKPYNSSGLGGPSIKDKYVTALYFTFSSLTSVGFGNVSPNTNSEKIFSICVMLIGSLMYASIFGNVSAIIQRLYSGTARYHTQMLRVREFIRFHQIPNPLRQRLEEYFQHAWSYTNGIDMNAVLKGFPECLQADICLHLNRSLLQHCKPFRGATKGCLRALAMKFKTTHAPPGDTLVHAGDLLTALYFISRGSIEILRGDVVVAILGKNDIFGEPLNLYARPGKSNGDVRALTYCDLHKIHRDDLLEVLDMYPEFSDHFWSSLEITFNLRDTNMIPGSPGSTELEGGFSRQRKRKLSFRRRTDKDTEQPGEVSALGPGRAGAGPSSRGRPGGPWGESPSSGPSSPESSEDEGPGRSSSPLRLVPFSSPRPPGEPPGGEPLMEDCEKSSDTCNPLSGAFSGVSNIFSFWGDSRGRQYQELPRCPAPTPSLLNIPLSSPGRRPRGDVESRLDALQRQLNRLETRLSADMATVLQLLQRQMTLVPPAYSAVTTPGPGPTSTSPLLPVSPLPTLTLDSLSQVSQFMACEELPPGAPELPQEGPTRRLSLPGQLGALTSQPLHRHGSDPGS
Sequence of CYP2D6 (P10635 whole entry): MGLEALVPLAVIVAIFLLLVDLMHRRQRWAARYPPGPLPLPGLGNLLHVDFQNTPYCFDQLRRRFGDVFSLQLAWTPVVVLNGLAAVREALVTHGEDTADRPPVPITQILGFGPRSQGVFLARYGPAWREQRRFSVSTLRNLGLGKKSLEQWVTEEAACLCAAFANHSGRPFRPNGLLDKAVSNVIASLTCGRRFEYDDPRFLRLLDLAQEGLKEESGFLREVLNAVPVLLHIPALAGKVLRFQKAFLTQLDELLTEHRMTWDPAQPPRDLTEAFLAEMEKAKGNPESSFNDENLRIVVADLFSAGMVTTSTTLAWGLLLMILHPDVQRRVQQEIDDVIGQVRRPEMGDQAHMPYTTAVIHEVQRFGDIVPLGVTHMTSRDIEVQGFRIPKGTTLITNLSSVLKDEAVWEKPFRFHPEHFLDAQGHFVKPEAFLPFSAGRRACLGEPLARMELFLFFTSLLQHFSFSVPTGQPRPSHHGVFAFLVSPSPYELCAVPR
Sequence of CYP1A2 (P05177 whole entry): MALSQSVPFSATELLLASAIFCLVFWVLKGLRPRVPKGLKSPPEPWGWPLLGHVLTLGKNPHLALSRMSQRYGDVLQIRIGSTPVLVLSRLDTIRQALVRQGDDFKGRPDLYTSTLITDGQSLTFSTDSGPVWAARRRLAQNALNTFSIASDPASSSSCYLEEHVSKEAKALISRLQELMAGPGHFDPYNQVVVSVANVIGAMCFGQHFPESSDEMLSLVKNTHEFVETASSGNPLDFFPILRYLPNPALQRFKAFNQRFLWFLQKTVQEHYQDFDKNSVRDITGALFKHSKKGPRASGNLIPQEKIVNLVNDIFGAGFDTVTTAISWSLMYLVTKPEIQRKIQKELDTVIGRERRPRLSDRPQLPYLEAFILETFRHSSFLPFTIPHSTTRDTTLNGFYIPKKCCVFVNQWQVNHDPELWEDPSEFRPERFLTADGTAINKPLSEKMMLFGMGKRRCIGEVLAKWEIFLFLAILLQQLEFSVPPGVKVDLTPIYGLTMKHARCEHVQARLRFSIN
Sequence of CYP2B6 (P20813 whole entry): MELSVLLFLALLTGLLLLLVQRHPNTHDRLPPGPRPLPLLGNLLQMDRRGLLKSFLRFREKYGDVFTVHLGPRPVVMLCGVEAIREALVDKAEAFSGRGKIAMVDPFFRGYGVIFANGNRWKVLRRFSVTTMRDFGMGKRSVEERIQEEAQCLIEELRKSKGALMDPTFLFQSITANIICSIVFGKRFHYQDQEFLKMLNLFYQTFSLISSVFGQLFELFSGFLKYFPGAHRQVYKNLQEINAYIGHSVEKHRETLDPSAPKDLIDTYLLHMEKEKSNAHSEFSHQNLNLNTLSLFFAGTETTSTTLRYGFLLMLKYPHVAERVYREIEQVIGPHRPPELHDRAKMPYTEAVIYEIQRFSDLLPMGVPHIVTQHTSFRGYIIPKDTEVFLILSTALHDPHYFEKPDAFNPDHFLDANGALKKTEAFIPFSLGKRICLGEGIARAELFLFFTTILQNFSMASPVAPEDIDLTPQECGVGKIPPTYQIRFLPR
Sequence of CYP2C19 (P33261 whole entry): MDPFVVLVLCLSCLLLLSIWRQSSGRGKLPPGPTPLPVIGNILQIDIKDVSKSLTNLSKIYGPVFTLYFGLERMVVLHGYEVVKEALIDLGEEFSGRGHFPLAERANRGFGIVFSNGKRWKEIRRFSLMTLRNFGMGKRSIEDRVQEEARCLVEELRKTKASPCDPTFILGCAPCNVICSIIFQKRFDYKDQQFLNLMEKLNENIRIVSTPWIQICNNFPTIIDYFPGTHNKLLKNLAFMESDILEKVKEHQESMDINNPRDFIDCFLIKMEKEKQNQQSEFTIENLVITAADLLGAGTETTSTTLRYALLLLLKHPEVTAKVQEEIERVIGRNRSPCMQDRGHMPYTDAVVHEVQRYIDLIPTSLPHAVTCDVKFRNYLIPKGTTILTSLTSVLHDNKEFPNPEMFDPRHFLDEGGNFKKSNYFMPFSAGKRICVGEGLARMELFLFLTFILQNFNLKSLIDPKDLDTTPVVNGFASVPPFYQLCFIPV

**Q.** What does the source list for `C[S@@](=N)(=O)c1ccc(C(=O)Nc2cc(-c3ccc(F)cc3)ccc2N)cc1` [Compound I, (R)—N-(4-amino-4′-fluoro-[1,1′-biphenyl]-3-yl)-4-(S-methylsulfonimidoyl)benzamide]?
**A.** IC50 (hERG potassium channel; Table 5, read-out: hERG IC50): > 30 µM; IC50 (hERG potassium channel; definitive hERG assay, replicates of 3, read-out: hERG potassium current IC50): 71.1 µM; inhibition at 3 µM (hERG potassium channel; human, HEK 293 cells stably expressing hERG, 3 uM, dose range-finding assay, read-out: inhibition of hERG currents): 15.7%; inhibition at 30 µM (hERG potassium channel; human, HEK 293 cells stably expressing hERG, 30 uM, dose range-finding assay, read-out: inhibition of hERG currents): 45.9%; inhibition at 100 µM (hERG potassium channel; human, HEK 293 cells stably expressing hERG, 100 uM, dose range-finding assay, read-out: inhibition of hERG currents): 73.6%; half-life (CYP2B6): > 1 h; solubility [1]: ≥ 100 µM; H3K9Ac accumulation in MC38 tumor tissue (H3K9Ac): dose dependent accumulation of H3K9Ac; half-life (CYP2C19): > 1 h; half-life (CYP1A2): > 1 h; half-life (CYP2D6): > 1 h
